Assays:
Format in all cases: in vivo
[1] = tested on: Pseudoperonospora cubensis; assay: Cucumber Downy Mildew foliar spray test, inoculated one day after treatment; details: applied to foliage at 200 ppm, cucumber plants, read-out: Activity against Fungal Diseases PSPECU (percent disease control)
Description: Fungicide activity data are the level (in percent) at which the given disease was controlled when the given compound was applied to the foliage of the plants at 200 ppm. In a few cases (noted in the table) the compound was applied to the plants at 25 ppm or 3 ppm. The plants were inoculated with the fungus one day after treatment. ***=80-100% control; **=50-79% control; *=0-49% control. […] The activity of the compounds as effective fungicides was determined by applying the compounds to plants and observing control of fungal disease. […] All plants were inoculated with spores of the fungus the day after treatment, then incubated in an environment conducive to disease development. Disease severity was evaluated 4 to 25 days (d) later, depending on the speed of disease development. The following experiments were performed in the laboratory to determine the fungicidal efficacy of the compounds of the invention. Cucumber Downy Mildew (causal agent Pseudoperonospora cubensis; Bayer code […]): Cucumber plants (variety 'Bush Champion' or 'Bush Pickle Hybrid') were grown from seed in a soil-less peat-based potting mixture (Metromix) until the first true leaf was 20-80% expanded. Each pot contained 1 seedling. These plants were sprayed until wet with the formulated test compound. On the following day, the leaves were inoculated with an aqueous suspension of downy mildew sporangia and the plants were kept in high humidity for one day to permit sporangia to germinate and infect the leaf. The plants were then incubated in a growth chamber until disease developed on untreated control plants. […] The effectiveness of the test compounds at controlling disease when sprayed on leaves was determined by assessing the severity of disease on treated plants, then converting the severity to percent control based on the level of disease on untreated, inoculated plants.

[2] = tested on: Puccinia recondita tritici; assay: Leaf Rust of Wheat foliar spray test, inoculated one day after treatment; details: applied to foliage at 200 ppm, wheat plants, read-out: Activity against Fungal Diseases PUCCRT (percent disease control)
Description: (§1) Fungicide activity data are the level (in percent) at which the given disease was controlled when the given compound was applied to the foliage of the plants at 200 ppm. In a few cases (noted in the table) the compound was applied to the plants at 25 ppm or 3 ppm. The plants were inoculated with the fungus one day after treatment. ***=80-100% control; **=50-79% control; *=0-49% control. […] The activity of the compounds as effective fungicides was determined by applying the compounds to plants and observing control of fungal disease. […] All plants were inoculated with spores of the fungus the day after treatment, then incubated in an environment conducive to disease development. Disease severity was evaluated 4 to 25 days (d) later, depending on the speed of disease development. The following experiments were performed in the laboratory to determine the fungicidal efficacy of the compounds of the invention. […] Each pot contained 3-8 seedlings. These plants were sprayed until wet with the formulated test compounds. On the following day, the leaves were inoculated with an aqueous spore suspension of Puccinia recondita tritici and the plants were kept in high humidity overnight to permit spores to germinate and infect the leaf. The plants were then transferred to a greenhouse until disease developed on untreated control plants. […] The effectiveness of the test compounds at controlling disease when sprayed on leaves was determined by assessing the severity of disease on treated plants, then converting the severity to percent control based on the level of disease on untreated, inoculated plants.

[3] = tested on: Pyricularia oryzae; assay: whole plant or invertebrate; details: foliar, read-out: Activity against Fungal Diseases PYRIOR (percent disease control)
[4] = tested on: Septoria tritici; assay: Septoria Blotch of Wheat foliar spray test, inoculated one day after treatment; details: Zymoseptoria tritici, wheat plants, read-out: Activity against Fungal Diseases SEPTTR (percent disease control); for pest or weed control at 200 ppm: applied to foliage at 200 ppm; for pest or weed control at 25 ppm: Tested at 25 ppm
Description: as §1, with “3-10” for “3-8”, “compound.” for “compounds.”, “Septoria” for “Puccinia recondita”, “(one day in a dark dew chamber followed by two days in a lighted dew chamber)” for “overnight”

## FC(F)(F)c1ccncc1Oc1ccc(CCNc2ncnc3scnc23)cc1 [Compound 43, thiazolo[5,4-d]pyrimidin-7-yl-{2-[4-(4-trifluoromethylpyridin-3-yloxy)-phenyl]-ethyl}-amine]
[1]
  pest or weed control at 200 ppm: 80 to 100%
[2]
  pest or weed control at 200 ppm: 80 to 100%
[3]
  pest or weed control at 200 ppm: 80 to 100%
[4]
  pest or weed control at 200 ppm: 80 to 100%

## Fc1cc(C(F)(F)F)cnc1Oc1ccc(CCNc2ncnc3scnc23)cc1 [Compound 61, {2-[4-(3-fluoro-5-trifluoromethylpyridin-2-yloxy)-phenyl]-ethyl}-thiazolo[5,4-d]pyrimidin-7-ylamine]
[1]
  pest or weed control at 200 ppm: 80 to 100%
[2]
  pest or weed control at 200 ppm: 80 to 100%
[3]
  pest or weed control at 200 ppm: 80 to 100%
[4]
  pest or weed control at 25 ppm: 50 to 79%

## FC(F)(F)c1ccnc(Oc2ccc(CCNc3ncnc4scnc34)cc2)c1 [Compound 7, thiazolo[5,4-d]pyrimidin-7-yl-{2-[4-(4-trifluoromethylpyridin-2-yloxy)-phenyl]-ethyl}-amine]
[1]
  pest or weed control at 200 ppm: 80 to 100%
[2]
  pest or weed control at 200 ppm: 80 to 100%
[3]
  pest or weed control at 200 ppm: 80 to 100%
[4]
  pest or weed control at 200 ppm: 80 to 100%

## FC(F)(F)c1cc(Oc2ccc(CCNc3ncnc4scnc34)cc2)ncn1 [Compound 52, thiazolo[5,4-d]pyrimidin-7-yl-{2-[4-(6-trifluoromethylpyrimidin-4-yloxy)-phenyl]-ethyl}-amine]
[1]
  pest or weed control at 200 ppm: 80 to 100%
[2]
  pest or weed control at 200 ppm: 80 to 100%
[3]
  pest or weed control at 200 ppm: 80 to 100%
[4]
  pest or weed control at 25 ppm: 80 to 100%

## COC(=O)c1cnc(Oc2ccc(CCNc3ncnc4scnc34)cc2Br)cc1C(F)(F)F [Compound 27, 6-{2-bromo-4-[2-(thiazolo[5,4-d]pyrimidin-7-ylamino)-ethyl]-phenoxy}-4-trifluoromethyl-nicotinic acid methyl ester]
[1]
  pest or weed control at 200 ppm: 80 to 100%
[2]
  pest or weed control at 200 ppm: 80 to 100%
[3]
  pest or weed control at 200 ppm: 80 to 100%
[4]
  pest or weed control at 200 ppm: 50 to 79%

## Cc1cc(CCNc2ncnc3scnc23)ccc1Oc1c(Cl)cnc(C(F)(F)F)c1Cl [Compound 49, {2-[4-(3,5-dichloro-2-trifluoromethylpyridin-4-yloxy)-3-methylphenyl]-ethyl}-thiazolo[5,4-d]pyrimidin-7-ylamine]
[1]
  pest or weed control at 200 ppm: 50 to 79%
[2]
  pest or weed control at 200 ppm: 50 to 79%
[3]
  pest or weed control at 200 ppm: 80 to 100%
[4]
  pest or weed control at 25 ppm: 0 to 49%

## Fc1cnc(Oc2ccc(CCNc3ncnc4scnc34)cc2)c(F)c1C(F)(F)F [Compound 36, {2-[4-(3,5-difluoro-4-trifluoromethylpyridin-2-yloxy)-phenyl]-ethyl}-thiazolo[5,4-d]pyrimidin-7-ylamine]
[1]
  pest or weed control at 200 ppm: 80 to 100%
[2]
  pest or weed control at 200 ppm: 80 to 100%
[3]
  pest or weed control at 200 ppm: 80 to 100%
[4]
  pest or weed control at 200 ppm: 80 to 100%

## c1ccc2c(c1)oc1ccc(CCNc3ncnc4scnc34)cc12 [Compound 44, (2-dibenzofuran-2-ylethyl)-thiazolo[5,4-d]pyrimidin-7-yl-amine]
[1]
  pest or weed control at 200 ppm: 80 to 100%
[2]
  pest or weed control at 200 ppm: 0 to 49%
[3]
  pest or weed control at 200 ppm: 80 to 100%
[4]
  pest or weed control at 200 ppm: 50 to 79%

## Cc1cc(CCNc2ncnc3scnc23)ccc1Oc1ncccc1C(F)(F)F [Compound 24, {2-[3-methyl-4-(3-trifluoromethylpyridin-2-yloxy)-phenyl]-ethyl}-thiazolo[5,4-d]pyrimidin-7-ylamine]
[1]
  pest or weed control at 200 ppm: 80 to 100%
[2]
  pest or weed control at 200 ppm: 80 to 100%
[3]
  pest or weed control at 200 ppm: 50 to 79%
[4]
  pest or weed control at 200 ppm: 80 to 100%

## Fc1cc(CCNc2ncnc3scnc23)ccc1Oc1cc(C(F)(F)F)ccn1 [Compound 41, {2-[3-fluoro-4-(4-trifluoromethylpyridin-2-yloxy)-phenyl]-ethyl}-thiazolo[5,4-d]pyrimidin-7-ylamine]
[1]
  pest or weed control at 200 ppm: 80 to 100%
[2]
  pest or weed control at 200 ppm: 80 to 100%
[3]
  pest or weed control at 200 ppm: 80 to 100%
[4]
  pest or weed control at 200 ppm: 80 to 100%

## Cc1cc(C(F)(F)F)cc(Oc2ccc(CCNc3ncnc4scnc34)cc2)n1 [Compound 62, {2-[4-(6-methyl-4-trifluoromethylpyridin-2-yloxy)-phenyl]-ethyl}-thiazolo[5,4-d]pyrimidin-7-ylamine]
[1]
  pest or weed control at 200 ppm: 80 to 100%
[2]
  pest or weed control at 200 ppm: 80 to 100%
[3]
  pest or weed control at 200 ppm: 80 to 100%
[4]
  pest or weed control at 200 ppm: 80 to 100%

## CC(Cc1ccc(Oc2cc(C(F)(F)F)ccn2)cc1)Nc1ncnc2scnc12 (centres unmarked) [Compound 18, {1-methyl-2-[4-(4-trifluoromethylpyridin-2-yloxy)-phenyl]-ethyl}-thiazolo[5,4-d]pyrimidin-7-ylamine]
[1]
  pest or weed control at 200 ppm: 80 to 100%
[2]
  pest or weed control at 200 ppm: 80 to 100%
[3]
  pest or weed control at 200 ppm: 80 to 100%
[4]
  pest or weed control at 200 ppm: 80 to 100%

## FC(F)(F)c1cccnc1Oc1ccc(CCNc2ncnc3scnc23)cc1 [Compound 8, thiazolo[5,4-d]pyrimidin-7-yl-{2-[4-(3-trifluoromethylpyridin-2-yloxy)-phenyl]-ethyl}-amine]
[1]
  pest or weed control at 200 ppm: 80 to 100%
[2]
  pest or weed control at 200 ppm: 80 to 100%
[3]
  pest or weed control at 200 ppm: 80 to 100%
[4]
  pest or weed control at 200 ppm: 80 to 100%

## COc1cc(CCNc2ncnc3scnc23)ccc1Oc1ccncc1C(F)(F)F [Compound 31, {2-[3-methoxy-4-(3-trifluoromethylpyridin-4-yloxy)-phenyl]-ethyl}-thiazolo[5,4-d]pyrimidin-7-ylamine]
[1]
  pest or weed control at 200 ppm: 50 to 79%
[2]
  pest or weed control at 200 ppm: 80 to 100%
[3]
  pest or weed control at 200 ppm: 80 to 100%
[4]
  pest or weed control at 25 ppm: 80 to 100%

## Cc1cc(CCNc2ncnc3scnc23)ccc1Oc1cc(C(F)(F)F)ncn1 [Compound 53, {2-[3-methyl-4-(6-trifluoromethylpyrimidin-4-yloxy)-phenyl]-ethyl}-thiazolo[5,4-d]pyrimidin-7-ylamine]
[1]
  pest or weed control at 200 ppm: 80 to 100%
[2]
  pest or weed control at 200 ppm: 80 to 100%
[3]
  pest or weed control at 200 ppm: 80 to 100%
[4]
  pest or weed control at 25 ppm: 80 to 100%

## COc1cc(CCNc2ncnc3scnc23)ccc1Oc1c(F)cnc(C(F)(F)F)c1F [Compound 32, {2-[4-(3,5-difluoro-2-trifluoromethylpyridin-4-yloxy)-3-methoxyphenyl]-ethyl}-thiazolo[5,4-d]pyrimidin-7-ylamine]
[1]
  pest or weed control at 200 ppm: 80 to 100%
[2]
  pest or weed control at 200 ppm: 80 to 100%
[3]
  pest or weed control at 200 ppm: 80 to 100%
[4]
  pest or weed control at 25 ppm: 80 to 100%

## Cc1cc(Oc2cc(C(F)(F)F)ccn2)c(C)cc1CCNc1ncnc2scnc12 [Compound 13, {2-[2,5-dimethyl-4-(4-trifluoromethylpyridin-2-yloxy)-phenyl]-ethyl}-thiazolo[5,4-d]pyrimidin-7-ylamine]
[1]
  pest or weed control at 200 ppm: 80 to 100%
[2]
  pest or weed control at 200 ppm: 80 to 100%
[3]
  pest or weed control at 200 ppm: 80 to 100%
[4]
  pest or weed control at 200 ppm: 80 to 100%
